Test results reported in patent publication US20200055891A1, “NOVEL PHOSPHOTRIAZOLE MRNA 5'-END CAP ANALOGS, COMPOSITION COMPRISING THE SAME, RNA MOLECULE INCORPORATING THE SAME, USES THEREOF AND METHOD OF SYNTHESIZING RNA MOLECULE, PROTEIN OR PEPTIDE” (UNIWERSYTET WARSZAWSKI, priority 2016, published 2020).
Counter-ions that a name gives are not always drawn.

Tests used:
[1] = Hydrolysis in D2O seen in NMR spectra; assay type: physicochemical; conditions: dissolved in D2O just before NMR measurement; given if higher than 5%
Procedure: Some cap analogues hydrolyzed in D2O gradually. Although pure compounds (see HPLC profiles, Supporting Information 2) were dissolved in D2O just before measurements, the spectra indicated some level of hydrolysis. % of hydrolysis is provided along with compound characterization data, if higher than 5%.

[2] = target: T1, SP6 RNA polymerase (Enterobacteria phage SP6, UniProt P06221); test: Capping efficiency: incorporation of cap analogues at the 5′ end of short transcripts by in vitro transcription; assay type: biochemical; conditions: 1.25 mM cap analogue, 0.125 mM GTP
T1 construct: purchased New England BioLabs
T1 sequence (P06221 1-874): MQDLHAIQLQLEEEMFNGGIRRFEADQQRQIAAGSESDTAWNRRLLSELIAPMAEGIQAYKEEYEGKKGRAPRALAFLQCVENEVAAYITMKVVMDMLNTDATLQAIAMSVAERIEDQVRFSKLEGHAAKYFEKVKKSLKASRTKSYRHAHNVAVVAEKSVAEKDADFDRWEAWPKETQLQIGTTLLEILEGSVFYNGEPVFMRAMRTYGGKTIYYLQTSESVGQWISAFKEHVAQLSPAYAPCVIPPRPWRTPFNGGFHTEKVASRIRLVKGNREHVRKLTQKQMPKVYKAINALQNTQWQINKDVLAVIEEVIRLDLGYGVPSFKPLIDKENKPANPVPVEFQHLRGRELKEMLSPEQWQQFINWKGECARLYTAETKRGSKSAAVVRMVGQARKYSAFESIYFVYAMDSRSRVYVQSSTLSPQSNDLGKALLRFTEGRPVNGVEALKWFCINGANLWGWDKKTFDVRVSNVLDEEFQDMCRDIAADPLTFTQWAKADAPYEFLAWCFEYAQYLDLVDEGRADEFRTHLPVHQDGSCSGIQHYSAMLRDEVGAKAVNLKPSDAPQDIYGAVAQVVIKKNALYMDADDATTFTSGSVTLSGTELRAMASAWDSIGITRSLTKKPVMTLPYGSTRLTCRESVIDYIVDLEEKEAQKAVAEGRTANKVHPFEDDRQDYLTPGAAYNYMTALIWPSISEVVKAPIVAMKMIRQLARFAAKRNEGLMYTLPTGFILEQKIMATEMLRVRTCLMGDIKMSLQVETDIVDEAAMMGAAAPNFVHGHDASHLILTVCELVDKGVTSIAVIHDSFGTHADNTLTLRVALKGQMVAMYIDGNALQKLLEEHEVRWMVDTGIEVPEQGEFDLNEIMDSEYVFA
Procedure: Prior to in vitro transcription annealing of a template was performed. DNA1 (SEQ ID NO: 1) and DNA2 (SEQ ID NO: 2) (20 μM each) were incubated in the presence of 4 mM Tris-HCl pH 8.0, 15 mM NaCl and 0.1 mM EDTA at 95° C. for 2 min and then at room temperature for 30 min. After 10-fold dilution the mixture was directly used for in vitro transcription.
The reaction was quenched by addition of 2 μl of 0.5 M EDTA pH 8.0 and purified with RNA Clean&Concentrator-5 kit (Zymo Research) to afford capped RNA1 (SEQ ID NO: 4) strands.
To reduce heterogeneity, each capped RNA1 (11.42 ng/μl, ca. 1 μM) was incubated in presence of 50 mM Tris-HCl pH 8.0, 50 mM MgCl2, RiboLock RNase Inhibitor (ThermoFisher Scientific) (2.0 U/μl) and DNA3 (SEQ ID NO: 3) (1 μM) at 37° C. for 1 h to afford RNA2 (SEQ ID NO: 5).^44 The reaction was stopped by freezing in liquid nitrogen and directly analyzed by PAGE (FIG. 3).
Relative bands intensity was determined using CLIQS v1.0 program.

[3] = test system: Rabbit Reticulocyte Lysate; test: Translation efficiency of capped firefly luciferase mRNA in Rabbit Reticulocyte Lysate System; assay type: biochemical; conditions: relative, m^7GpppG = 1
Procedure: The reaction was quenched by addition of 2 μl of 0.5 M EDTA pH 8.0 and purified with NucleoSpin RNA Clean-up XS kit (Macherey-Nagel) to afford luciferase-coding RNA strands capped with appropriate cap analogue.
For each capped luciferase-coding RNA four diluted solutions were prepared—3.0 ng/μl, 1.5 ng/μl, 0.75 ng/μl, 0.375 ng/μl. Translation studies were performed using Rabbit Reticulocyte Lysate System (Promega). 9 μl of a mixture containing Rabbit Reticulocyte Lysate (4 μl), Amino Acid Mixture Minus Leucine (0.05 μl of 1 mM solution), Amino Acid Mixture Minus Methionine (0.05 μl of 1 mM solution), potassium acetate (1.9 μl of 1 M solution), MgCl2 (0.4 μl of 25 mM solution) and 2.1 μl of water was incubated at 30° C. for 1 h after which 1 μl of appropriate luciferase-coding RNA solution was added and incubation of the reaction was continued at 37° C. for another hour. The reaction was stopped by freezing in liquid nitrogen.
Translation efficiency was determined using Luciferase Reporter System (Promega). The samples were defrosted just before the experiment. To every sample 50 μl of Luciferase Assay Reagent was added just before measurement of luminescence on Synergy H1 Microplate Reader (Bio Tek). The measurement were performed for every four samples independently due to low stability of luminescence signal. The results are presented on. FIG. 4 as proportions between regression coefficients of linear relationships between capped luciferase-coding RNA concentration in translation reaction (300 pg/μl, 150 pg/μl, 75 pg/μl, 37.5 pg/μl) and corresponding luminescence signal.

[4] = Stability studies in buffers pH 3-9, RP HPLC; assay type: physicochemical; conditions: room temperature; for % of remaining cap, Bufor pH 7, 4 h / % of remaining cap, Bufor pH 7, 24 h: 0.1 M HEPES pH 7.0, 20 μM; for % of remaining cap, Bufor pH 5, 4 h / % of remaining cap, Bufor pH 5, 24 h: 0.1 M acetate buffer pH 5.0, 20 μM; for % of remaining cap, Bufor pH 9, 4 h / % of remaining cap, Bufor pH 9, 24 h: 0.1 M borate buffer pH 9.0, 20 μM; for % of remaining cap, Bufor pH 3, 4 h / % of remaining cap, Bufor pH 3, 24 h: 0.1 M formate buffer pH 3.0, 20 μM
Procedure: Analogues m2^7,2′-OGppp-triazole-C2H4NHppG, m2^7,2′-OGppp-triazole-C2H4OppG, m2^7,2′-OGppp-triazole-C2H4OpG, m2^7,2′-OGpp-triazole-C2H4OppG were incubated in sealed vials at 20 μM and at room temperature in four different buffers: 0.1 M formate buffer pH 3.0, 0.1 M acetate buffer pH 5.0, 0.1 M HEPES pH 7.0 and 0.1 M borate buffer pH 9.0. […] The starting compound peak area was determined for each time-point and % of remaining cap was calculated in reference to the time-point 0 h.

Compound	hydrolysis in D2O [1]	Capping efficiency [2]	Translation efficiency [3]	% of remaining cap, Bufor pH 7, 4 h [4]	% of remaining cap, Bufor pH 7, 24 h [4]	% of remaining cap, Bufor pH 5, 4 h [4]	% of remaining cap, Bufor pH 5, 24 h [4]	% of remaining cap, Bufor pH 9, 4 h [4]	% of remaining cap, Bufor pH 9, 24 h [4]	% of remaining cap, Bufor pH 3, 4 h [4]	% of remaining cap, Bufor pH 3, 24 h [4]
[N-]=[N+]=NCCNP(=O)(O)OP(=O)(O)OC[C@H]1O[C@@H](n2cnc3c(=O)[nH]c(N)nc32)[C@H](O)[C@@H]1O [GppNHC2H4N3, N-(2-azidoethyl) β-phosphoramidate guanosine diphosphate ammonium salt]	15%	–	–	–	–	–	–	–	–	–	–
COC1C(O)[C@@H](COP(=O)(O)OP(=O)(O)OP(=O)([O-])c2cn(CCNP(=O)(O)OP(=O)(O)OC[C@H]3O[C@@H](n4cnc5c(=O)[nH]c(N)nc54)C(O)C3O)nn2)O[C@H]1n1c[n+](C)c2c(=O)[nH]c(N)nc21 (stereo partly shown) [m2^7,2′-OGppptC2H4NHppG, m2^7,2′-OGppp-triazole-C2H4NHppG]	–	43.0%	2.226 ± 0.399	0%	0%	0%	0%	0.5%	3.0%	19.0%	72.9%
C[n+]1cn([C@@H]2O[C@H](COP(=O)(O)NCCn3cc(P(=O)([O-])OP(=O)(O)OC[C@H]4O[C@@H](n5cnc6c(=O)[nH]c(N)nc65)C(O)C4O)nn3)C(O)C2O)c2nc(N)[nH]c(=O)c21 (stereo partly shown) [m^7GpNHC2H4tppG, m^7GpNHC2H4-triazole-ppG]	14%	57%	0.075 ± 0.009	–	–	–	–	–	–	–	–
C[n+]1cn([C@@H]2O[C@H](COP(=O)([O-])OP(=O)(O)Cc3cn(CCNP(=O)(O)OC[C@H]4O[C@@H](n5cnc6c(=O)[nH]c(N)nc65)C(O)C4O)nn3)C(O)C2O)c2nc(N)[nH]c(=O)c21 (stereo partly shown) [m^7GppCH2tC2H4NHpG, m^7GppCH2-triazole-C2H4NHpG]	–	54%	0.155 ± 0.019	–	–	–	–	–	–	–	–
C[n+]1cn([C@@H]2O[C@H](COP(=O)(O)OP(=O)(O)CCc3cn(CCNP(=O)(O)OP(=O)([O-])OC[C@H]4O[C@@H](n5cnc6c(=O)[nH]c(N)nc65)[C@@H](O)C4O)nn3)[C@H](O)C2O)c2nc(N)[nH]c(=O)c21 (stereo partly shown) [m^7GppC2H4tC2H4NHppG, m^7GppC2H4-triazole-C2H4NHppG]	10%	48.8%	0.085 ± 0.017	–	–	–	–	–	–	–	–
C[n+]1cn([C@@H]2O[C@H](COP(=O)(O)NCCn3cc(CP(=O)(O)OP(=O)([O-])OP(=O)(O)OC[C@H]4O[C@@H](n5cnc6c(=O)[nH]c(N)nc65)C(O)C4O)nn3)C(O)C2O)c2nc(N)[nH]c(=O)c21 (stereo partly shown) [m^7GpNHC2H4tCH2pppG, m^7GpNHC2H4-triazole-CH2pppG]	7%	62%	0.060 ± 0.004	–	–	–	–	–	–	–	–
COC1C(O)[C@@H](COP(=O)(O)OP(=O)(O)OP(=O)([O-])c2cn(CCOP(=O)(O)OP(=O)(O)OC[C@H]3O[C@@H](n4cnc5c(=O)[nH]c(N)nc54)C(O)C3O)nn2)O[C@H]1n1c[n+](C)c2c(=O)[nH]c(N)nc21 (stereo partly shown) [m2^7,2′-OGppptC2H4OppG, m2^7,2′-OGppp-triazole-C2H4OppG]	–	38.0%	1.749 ± 0.263	0%	0%	0%	0%	–	–	0%	0%
Nc1nc2c(ncn2[C@@H]2O[C@H](COP(=O)(O)OP(=O)(O)OP(=O)(O)OC[C@H]3O[C@@H](n4cnc5c(=O)[nH]c(N)nc54)[C@H](O)[C@@H]3O)[C@@H](O)[C@H]2O)c(=O)[nH]1 [GpppG, reference compound]	–	92%	0.058 ± 0.008	–	–	–	–	–	–	–	–
COC1C(O)[C@@H](COP(=O)(O)OP(=O)([O-])c2cn(CCOP(=O)(O)OP(=O)(O)OC[C@H]3O[C@@H](n4cnc5c(=O)[nH]c(N)nc54)C(O)C3O)nn2)O[C@H]1n1c[n+](C)c2c(=O)[nH]c(N)nc21 (stereo partly shown) [m2^7,2′-OGpptC2H4OppG, m2^7,2′-OGpp-triazole-C2H4OppG]	–	44.2%	1.675 ± 0.168	–	–	–	–	–	–	–	–
m2^7,2′-OGppp-triazole-C2H4NHpG [m2^7,2′-OGppptC2H4NHpG]	8%	41%	1.462 ± 0.182	–	–	–	–	–	–	–	–
C[n+]1cn([C@@H]2O[C@H](COP(=O)(O)NCCn3cc(CP(=O)(O)OP(=O)([O-])OC[C@H]4O[C@@H](n5cnc6c(=O)[nH]c(N)nc65)C(O)C4O)nn3)C(O)C2O)c2nc(N)[nH]c(=O)c21 (stereo partly shown) [m^7GpNHC2H4tCH2ppG, m^7GpNHC2H4-triazole-CH2ppG]	11%	47%	0.085 ± 0.017	–	–	–	–	–	–	–	–
COC1C(O)[C@@H](COP(=O)(O)OP(=O)(O)OP(=O)([O-])c2cn(CCOP(=O)(O)OC[C@H]3O[C@@H](n4cnc5c(=O)[nH]c(N)nc54)C(O)C3O)nn2)O[C@H]1n1c[n+](C)c2c(=O)[nH]c(N)nc21 (stereo partly shown) [m2^7,2′-OGppptC2H4OpG, m2^7,2′-OGppp-triazole-C2H4OpG]	–	47.6%	2.773 ± 0.293	0%	0%	0%	0%	0.1%	1.2%	0%	0%
C[n+]1cn([C@@H]2O[C@H](COP(=O)(O)OP(=O)([O-])c3cn(CCNP(=O)(O)OC[C@H]4O[C@@H](n5cnc6c(=O)[nH]c(N)nc65)C(O)C4O)nn3)C(O)C2O)c2nc(N)[nH]c(=O)c21 (stereo partly shown) [m^7GpptC2H4NHpG, m^7Gpp-triazole-C2H4NHpG]	–	56.8%	0.50 ± 0.06	–	–	–	–	–	–	–	–
